# Where two headings read alike, the source gives them in different places.
# Experiments:
# α-1,4-glucan lyase = assay: Inhibition studies of α-1,4-glucan lyase activity; assay type: biochemical, Gracilariopsis lemaneiformis; details: products accumulating during the enzyme reaction
# Description: The reaction mixture for the assay of α-1,4-glucan lyase was composed of 240 μl 62.5 mM Mops-NaOH containing 6 mg soluble starch (pH 6.2), the enzyme preparation and distilled water to a final volume of 300 μl. The reaction was carried out at 30° C. for 10-30 min. Liberated 1,5-anhydrofructose was determined by monitoring the absorbance at 546 nm after the addition of 3,5-dinitrosalicylic acid reagent. Soluble starch in the reaction mixture may be replaced by other substrates and the final substrate concentration may be varied as indicated in the text. The reaction time and enzyme concentration used in enzyme activity assay have been chosen to ensure the linearity of the reaction rate. One unit of α-1,4-glucan lyase activity is defined as the amount of enzyme which liberates 1μmol of 1,5-anhydrofructose min^-1 under the conditions described above.
# [1] = assay type: physicochemical; details: for Absorbance at 546 nm: room temperature; for Absorbance (546 nm): Table VII, 10 min after DNS reagent
# Description: It can be seen that the reaction was completed in less than 10 minutes. […] (1990) Methods in Plant Biochemistry (Dey, P. M. and Harborne, J. B., eds.), Vol.3, pp. 103-127, Academic Press, London). |Time-course reaction of AF with DNS reagent at room |temperature. The absorbance at 546 nm as a measure of reaction |rate was recorded soon after the addition of 300 μl DNS reagent |to 300 μl sample solution containing varying amount of AF. […] The reaction of AF with 3,5-dinitrosalicylic acid reagent occurred at room temperature and was completed within 10 min (Table VI). A linear relationship exists for AF between the absorbance of 0.1-2.3 at 546 nm and AF content, ranging from 0.3-2.7 μmol or 50-440 μg i 300 μl sample (Table VII). […] This method is applicable to both the smallest substrate as maltose and the largest substrate as amylopectin. |The correlation between AF content and absorbance. |Absorbance was measured 10 min after the addition of |300 μl DNS reagent to 300 μl sample solution |containing varying amount of AF as indicated.
# [2] = tested on: hexokinase and glucose-6-phosphate dehydrogenase pathway; assay: Metabolization of AF by hexokinase and glucose-6-phosphate dehydrogenase; assay type: biochemical
# glucose peroxidase = assay: Metabolization of AF by glucose peroxidase; assay type: biochemical
structure (smiles),measurement,setting,value
"O=C1CO[C@H](CO)[C@@H](O)[C@@H]1O [AF, 1,5-anhydrofructose]",product inhibition: effect on enzyme reaction rate,"α-1,4-glucan lyase",negligible effect
same,reducing power (in words),"[1]; 3,5-dinitrosalicylic acid reagent at room temperature",high reducing power
same,Absorbance at 546 nm,"[1]; AF content 0.55 μmol, reaction time 0 min",0
same,Absorbance at 546 nm,"[1]; AF content 0.55 μmol, reaction time 1 min",0.037
same,Absorbance at 546 nm,"[1]; AF content 0.55 μmol, reaction time 2 min",0.180
same,Absorbance at 546 nm,"[1]; AF content 0.55 μmol, reaction time 3 min",0.274
same,Absorbance at 546 nm,"[1]; AF content 0.55 μmol, reaction time 4 min",0.341
same,Absorbance at 546 nm,"[1]; AF content 0.55 μmol, reaction time 5 min",0.386
same,Absorbance at 546 nm,"[1]; AF content 0.55 μmol, reaction time 6 min",0.414
same,Absorbance at 546 nm,"[1]; AF content 0.55 μmol, reaction time 7 min",0.431
same,Absorbance at 546 nm,"[1]; AF content 0.55 μmol, reaction time 8 min",0.440
same,Absorbance at 546 nm,"[1]; AF content 0.55 μmol, reaction time 9 min",0.444
same,Absorbance at 546 nm,"[1]; AF content 0.55 μmol, reaction time 10 min",0.446
same,Absorbance at 546 nm,"[1]; AF content 1.26 μmol, reaction time 0 min",0
same,Absorbance at 546 nm,"[1]; AF content 1.26 μmol, reaction time 1 min",0.218
same,Absorbance at 546 nm,"[1]; AF content 1.26 μmol, reaction time 2 min",0.468
same,Absorbance at 546 nm,"[1]; AF content 1.26 μmol, reaction time 3 min",0.660
same,Absorbance at 546 nm,"[1]; AF content 1.26 μmol, reaction time 4 min",0.796
same,Absorbance at 546 nm,"[1]; AF content 1.26 μmol, reaction time 5 min",0.888
same,Absorbance at 546 nm,"[1]; AF content 1.26 μmol, reaction time 6 min",0.948
same,Absorbance at 546 nm,"[1]; AF content 1.26 μmol, reaction time 7 min",0.985
same,Absorbance at 546 nm,"[1]; AF content 1.26 μmol, reaction time 8 min",1.007
same,Absorbance at 546 nm,"[1]; AF content 1.26 μmol, reaction time 9 min",1.024
same,Absorbance at 546 nm,"[1]; AF content 1.26 μmol, reaction time 10 min",1.029
same,Absorbance at 546 nm,"[1]; AF content 2.36 μmol, reaction time 0 min",0
same,Absorbance at 546 nm,"[1]; AF content 2.36 μmol, reaction time 1 min",0.476
same,Absorbance at 546 nm,"[1]; AF content 2.36 μmol, reaction time 2 min",0.930
same,Absorbance at 546 nm,"[1]; AF content 2.36 μmol, reaction time 3 min",1.271
same,Absorbance at 546 nm,"[1]; AF content 2.36 μmol, reaction time 4 min",1.510
same,Absorbance at 546 nm,"[1]; AF content 2.36 μmol, reaction time 5 min",1.671
same,Absorbance at 546 nm,"[1]; AF content 2.36 μmol, reaction time 6 min",1.775
same,Absorbance at 546 nm,"[1]; AF content 2.36 μmol, reaction time 7 min",1.840
same,Absorbance at 546 nm,"[1]; AF content 2.36 μmol, reaction time 8 min",1.880
same,Absorbance at 546 nm,"[1]; AF content 2.36 μmol, reaction time 9 min",1.905
same,Absorbance at 546 nm,"[1]; AF content 2.36 μmol, reaction time 10 min",1.920
same,Absorbance at 546 nm,"[1]; AF content 2.84 μmol, reaction time 0 min",0
same,Absorbance at 546 nm,"[1]; AF content 2.84 μmol, reaction time 1 min",0.559
same,Absorbance at 546 nm,"[1]; AF content 2.84 μmol, reaction time 2 min",1.222
same,Absorbance at 546 nm,"[1]; AF content 2.84 μmol, reaction time 3 min",1.628
same,Absorbance at 546 nm,"[1]; AF content 2.84 μmol, reaction time 4 min",1.898
same,Absorbance at 546 nm,"[1]; AF content 2.84 μmol, reaction time 5 min",2.070
same,Absorbance at 546 nm,"[1]; AF content 2.84 μmol, reaction time 6 min",2.176
same,Absorbance at 546 nm,"[1]; AF content 2.84 μmol, reaction time 7 min",2.239
same,Absorbance at 546 nm,"[1]; AF content 2.84 μmol, reaction time 8 min",2.278
same,Absorbance at 546 nm,"[1]; AF content 2.84 μmol, reaction time 9 min",2.300
same,Absorbance at 546 nm,"[1]; AF content 2.84 μmol, reaction time 10 min",2.311
same,Absorbance (546 nm),[1]; AF content 0.264 μmol,0.113
same,Absorbance (546 nm),[1]; AF content 0.340 μmol,0.154
same,Absorbance (546 nm),[1]; AF content 0.360 μmol,0.166
same,Absorbance (546 nm),[1]; AF content 0.526 μmol,0.305
same,Absorbance (546 nm),[1]; AF content 0.540 μmol,0.237
same,Absorbance (546 nm),[1]; AF content 0.636 μmol,0.355
same,Absorbance (546 nm),[1]; AF content 0.655 μmol,0.514
same,Absorbance (546 nm),[1]; AF content 0.702 μmol,0.584
same,Absorbance (546 nm),[1]; AF content 0.929 μmol,0.682
same,Absorbance (546 nm),[1]; AF content 1.089 μmol,0.710
same,Absorbance (546 nm),[1]; AF content 1.148 μmol,0.880
same,Absorbance (546 nm),[1]; AF content 1.181 μmol,0.880
same,Absorbance (546 nm),[1]; AF content 1.241 μmol,1.099
same,Absorbance (546 nm),[1]; AF content 1.514 μmol,1.415
same,Absorbance (546 nm),[1]; AF content 1.529 μmol,1.260
same,Absorbance (546 nm),[1]; AF content 1.588 μmol,1.516
same,Absorbance (546 nm),[1]; AF content 1.627 μmol,1.302
same,Absorbance (546 nm),[1]; AF content 1.712 μmol,1.409
same,Absorbance (546 nm),[1]; AF content 2.031 μmol,1.830
same,Absorbance (546 nm),[1]; AF content 2.052 μmol,1.703
same,Absorbance (546 nm),[1]; AF content 2.183 μmol,1.806
same,Absorbance (546 nm),[1]; AF content 2.241 μmol,1.787
same,Absorbance (546 nm),[1]; AF content 2.362 μmol,1.875
same,Absorbance (546 nm),[1]; AF content 2.683 μmol,2.266
same,Absorbance (546 nm),[1]; AF content 3.221 μmol,2.590
same,metabolization through hexokinase and glucose-6-phosphate dehydrogenase pathway,[2],can not be metabolized
same,metabolization by glucose peroxidase,glucose peroxidase,can not be metabolized
